Source: patent US20260028326A1, “COMPOUND BASED ON ISOINDOLINE-SUBSTITUTED GLUTARIMIDE BACKBONE AND USE THEREOF” (GLUETACS THERAPEUTICS (SHANGHAI) CO., LTD., priority 2022, published 2026)

biological target: human Cereblon WT GST-tagged protein (Homo sapiens (Human), UniProt Q96SW2); assay: CRBN-binding affinity, HTRF (CEREBLON BINDING kit)
How it was run: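 HTRF competition readout: compounds compete with a thalidomide-Re conjugate for GST-tagged wild-type human CRBN detected via Eu-labelled anti-GST antibody. Inhibition rate derived relative to protein-free blank wells.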

Sequence of human Cereblon WT GST-tagged protein (Q96SW2 whole entry): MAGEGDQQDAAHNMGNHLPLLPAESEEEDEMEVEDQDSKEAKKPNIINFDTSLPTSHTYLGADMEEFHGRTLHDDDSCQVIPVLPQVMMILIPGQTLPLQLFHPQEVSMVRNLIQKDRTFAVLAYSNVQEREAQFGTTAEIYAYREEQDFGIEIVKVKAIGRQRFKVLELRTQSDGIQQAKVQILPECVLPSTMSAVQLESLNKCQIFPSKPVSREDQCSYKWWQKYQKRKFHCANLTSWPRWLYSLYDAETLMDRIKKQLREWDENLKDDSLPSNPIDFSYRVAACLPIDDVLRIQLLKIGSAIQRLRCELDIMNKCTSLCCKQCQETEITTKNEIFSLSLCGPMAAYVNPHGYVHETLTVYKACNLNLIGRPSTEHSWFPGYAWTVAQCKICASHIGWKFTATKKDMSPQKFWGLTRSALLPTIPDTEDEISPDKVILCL

Point of comparison: `CC1(C)CCC(C(=O)N2CC3CN(C(=O)c4ccc5c(c4)CN(C4CCC(=O)NC4=O)C5=O)CC3C2)=C(c2ccc(Cl)cc2)C1` (centres unmarked) [GT-05659, 3-(5-(5-(4′-chloro-5,5-dimethyl-3,4,5,6-tetrahydro-[1,1′-biphenyl]-2-carbonyl)octahydropyrrolo[3,4-c]pyrrole-2-carbonyl)-1-oxoisoindolin-2-yl)piperidine-2,6-dione], IC50 0.66 µM. Against it:
- CC1(C)CCC(CN2C3CC2CN(Cc2cc(F)c4c(c2)CN(C2CCC(=O)NC2=O)C4=O)C3)=C(c2ccc(Cl)cc2)C1 (centres unmarked) [GT-05531, 3-(5-((6-((4′-chloro-5,5-dimethyl-3,4,5,6-tetrahydro-[1,1′-biphenyl]-2-yl)methyl)-3,6-diazabicyclo[3.1.1]heptan-3-yl)methyl)-7-fluoro-1-oxoisoindolin-2-yl)piperidine-2,6-dione] — within 1.5-fold, 0.8 µM
- CC1(C)CCC(CN2C3CCC2CN(Cc2ccc4c(c2)CN(C2CCC(=O)NC2=O)C4=O)C3)=C(c2ccc(F)cc2)C1 (centres unmarked) [GT-05510, 3-(5-((8-((4′-fluoro-5,5-dimethyl-3,4,5,6-tetrahydro-[1,1′-biphenyl]-2-yl)methyl)-3,8-diazabicyclo[3.2.1]octan-3-yl)methyl)-1-oxoisoindolin-2-yl)piperidine-2,6-dione] — 1.8-fold higher, 1.22 µM
- CC1(C)CCC(CN2CC3CCC2CN3Cc2ccc3c(c2)C(=O)N(C2CCC(=O)NC2=O)C3)=C(c2ccc(Cl)cc2)C1 (centres unmarked) [GT-05485, 3-(6-((5-((4′-chloro-5,5-dimethyl-3,4,5,6-tetrahydro-[1,1′-biphenyl]-2-yl)methyl)-2,5-diazabicyclo[2.2.2]octan-2-yl)methyl)-1-oxoisoindolin-2-yl)piperidine-2,6-dione] — within 1.5-fold, 0.74 µM
- O=C1CCC(N2Cc3cc(CN4C5CC4CN(C(=O)C4=C(c6ccc(F)cc6)CCCC4)C5)c(F)cc3C2=O)C(=O)N1 (centres unmarked) [GT-05476, 3-(6-fluoro-5-((3-(4′-fluoro-3,4,5,6-tetrahydro-[1,1′-biphenyl]-2-carbonyl)-3,6-diazabicyclo[3.1.1]heptan-6-yl)methyl)-1-oxoisoindolin-2-yl)piperidine-2,6-dione] — 1.8-fold higher, 1.2 µM
- CC1(C)CCC(CN2CC3CCC(C2)N3Cc2ccc3c(c2)C(=O)N(C2CCC(=O)NC2=O)C3)=C(c2ccc(Cl)cc2)C1 (centres unmarked) [GT-05459, 3-(6-((3-((4′-chloro-5,5-dimethyl-3,4,5,6-tetrahydro-[1,1′-biphenyl]-2-yl)methyl)-3,8-diazabicyclo[3.2.1]octan-8-yl)methyl)-1-oxoisoindolin-2-yl)piperidine-2,6-dione] — 1.7-fold higher, 1.12 µM
- O=C1CCC(N2Cc3cc(CN4CCN(C(=O)C5=C(c6ccc(F)cc6)CCCC5)CC4)cc(F)c3C2=O)C(=O)N1 (centres unmarked) [GT-05474, 3-(7-fluoro-5-((4-(4′-fluoro-3,4,5,6-tetrahydro-[1,1′-biphenyl]-2-carbonyl)piperazin-1-yl)methyl)-1-oxoisoindolin-2-yl)piperidine-2,6-dione] — 1.8-fold higher, 1.17 µM
- CC1(C)CCC(C(=O)N2C3CC2CN(Cc2ccc4c(c2)CN(C2CCC(=O)NC2=O)C4=O)C3)=C(c2ccc(Cl)cc2)C1 (centres unmarked) [GT-05660, 3-(5-((6-(4′-chloro-5,5-dimethyl-3,4,5,6-tetrahydro-[1,1′-biphenyl]-2-carbonyl)-3,6-diazabicyclo[3.1.1]heptan-3-yl)methyl)-1-oxoisoindolin-2-yl)piperidine-2,6-dione] — 1.6-fold higher, 1.04 µM
- CC1(C)CCC(CN2C[C@H]3C[C@@H]2CN3Cc2ccc3c(c2)CN(C2CCC(=O)NC2=O)C3=O)=C(c2ccc(Cl)cc2)C1 (stereo partly drawn) [GT-03887, 3-(5-(((1R,4R)-5-((4′-chloro-5,5-dimethyl-3,4,5,6-tetrahydro-[1,1′-biphenyl]-2-yl)methyl)-2,5-diazabicyclo[2.2.1]heptan-2-yl)methyl)-1-oxoisoindolin-2-yl)piperidine-2,6-dione] — 3.5-fold lower, 0.19 µM
- O=C1CCC(N2C(=O)c3ccc(C(=O)N4CCN(Cc5cccc(-c6ccc(Cl)cc6)c5)CC4)cc3C2=O)C(=O)N1 (centres unmarked) [GT-05631, 5-(4-((4′-chloro-[1,1′-biphenyl]-3-yl)methyl)piperazine-1-carbonyl)-2-(2,6-dioxopiperidin-3-yl)isoindoline-1,3-dione] — 2.7-fold higher, 1.75 µM
- CC1(C)CCC(C(=O)N2CC3CC(C2)N3Cc2ccc3c(c2)CN(C2CCC(=O)NC2=O)C3=O)=C(c2ccc(Cl)cc2)C1 (centres unmarked) [GT-05521, 3-(5-((3-(4′-chloro-5,5-dimethyl-3,4,5,6-tetrahydro-[1,1′-biphenyl]-2-carbonyl)-3,6-diazabicyclo[3.1.1]heptan-6-yl)methyl)-1-oxoisoindolin-2-yl)piperidine-2,6-dione] — within 1.5-fold, 0.62 µM
- CC1(C)CCC(CN2CC3CC2CN3C(=O)c2ccc3c(c2)CN(C2CCC(=O)NC2=O)C3=O)=C(c2ccc(F)cc2)C1 (centres unmarked) [GT-05452, 3-(5-(5-((4′-fluoro-5,5-dimethyl-3,4,5,6-tetrahydro-[1,1′-biphenyl]-2-yl)methyl)-2,5-diazabicyclo[2.2.1]heptane-2-carbonyl)-1-oxoisoindolin-2-yl)piperidine-2,6-dione] — 1.5-fold lower, 0.44 µM
- CC1(C)CCC(CN2CC(Cc3ccc4c(c3)CN(C3CCC(=O)NC3=O)C4=O)C2)=C(c2ccc(F)cc2)C1 (centres unmarked) [GT-05493, 3-(5-((1-((4′-fluoro-5,5-dimethyl-3,4,5,6-tetrahydro-[1,1′-biphenyl]-2-yl)methyl)azetidin-3-yl)methyl)-1-oxoisoindolin-2-yl)piperidine-2,6-dione] — within 1.5-fold, 0.76 µM
- O=C1CCC(N2Cc3cc(CN4CCN(C(=O)c5ccncc5-c5ccc(Cl)cc5)CC4)ccc3C2=O)C(=O)N1 (centres unmarked) [GT-04222, 3-(5-((4-(3-(4-chlorophenyl)isonicotinoyl)piperazin-1-yl)methyl)-1-oxoisoindolin-2-yl)piperidine-2,6-dione] — within 1.5-fold, 0.56 µM
- CC1(C)CCC(CN2CC3CCC2CN3c2ccc3c(c2)C(=O)N(C2CCC(=O)NC2=O)C3=O)=C(c2ccc(Cl)cc2)C1 (centres unmarked) [GT-05379, 5-(5-((4′-chloro-5,5-dimethyl-3,4,5,6-tetrahydro-[1,1′-biphenyl]-2-yl)methyl)-2,5-diazabicyclo[2.2.2]octan-2-yl)-2-(2,6-dioxopiperidin-3-yl)isoindoline-1,3-dione] — 6-fold lower, 0.11 µM
- CC1(C)CCC(CN2CCN(CCc3ccc4c(c3)CN(C3CCC(=O)NC3=O)C4=O)CC2)=C(c2ccc(Cl)cc2)C1 (centres unmarked) [GT-05361, 3-(5-(2-(4-((4′-chloro-5,5-dimethyl-3,4,5,6-tetrahydro-[1,1′-biphenyl]-2-yl)methyl)piperazin-1-yl)ethyl)-1-oxoisoindolin-2-yl)piperidine-2,6-dione] — 1.8-fold lower, 0.37 µM
- CC1(C)CCC(C(=O)N2CC3CC(C2)N3C(=O)c2ccc3c(c2)CN(C2CCC(=O)NC2=O)C3=O)=C(c2ccc(Cl)cc2)C1 (centres unmarked) [GT-05538, 3-(5-(3-(4′-chloro-5,5-dimethyl-3,4,5,6-tetrahydro-[1,1′-biphenyl]-2-carbonyl)-3,6-diazabicyclo[3.1.1]heptane-6-carbonyl)-1-oxoisoindolin-2-yl)piperidine-2,6-dione] — 1.5-fold higher, 1.02 µM
- CC1(C)CCC(C(=O)N2CCN(Cc3cc(F)c4c(c3)CN(C3CCC(=O)NC3=O)C4=O)CC2)=C(c2ccc(Cl)cc2)C1 (centres unmarked) [GT-05527, 3-(5-((4-(4′-chloro-5,5-dimethyl-3,4,5,6-tetrahydro-[1,1′-biphenyl]-2-carbonyl)piperazin-1-yl)methyl)-7-fluoro-1-oxoisoindolin-2-yl)piperidine-2,6-dione] — 1.5-fold higher, 0.99 µM
- O=C1CCC(N2Cc3cc(CN4C5CC4CN(C(=O)C4=C(c6ccc(F)cc6)CCCC4)C5)ccc3C2=O)C(=O)N1 (centres unmarked) [GT-04169, 3-(5-((3-(4′-fluoro-3,4,5,6-tetrahydro-[1,1′-biphenyl]-2-carbonyl)-3,6-diazabicyclo[3.1.1]heptan-6-yl)methyl)-1-oxoisoindolin-2-yl)piperidine-2,6-dione] — within 1.5-fold, 0.85 µM
- O=C1CCC(N2Cc3ccc(CN4C5CC4CN(C(=O)C4=C(c6ccc(F)cc6)CCCC4)C5)cc3C2=O)C(=O)N1 (centres unmarked) [GT-05479, 3-(6-((3-(4′-fluoro-3,4,5,6-tetrahydro-[1,1′-biphenyl]-2-carbonyl)-3,6-diazabicyclo[3.1.1]heptan-6-yl)methyl)-1-oxoisoindolin-2-yl)piperidine-2,6-dione] — within 1.5-fold, 0.72 µM
- O=C1CCC(N2Cc3cc(CN4CC5CCC4CN5Cc4ccccc4-c4ccc(Cl)cc4)ccc3C2=O)C(=O)N1 (centres unmarked) [GT-05619, 3-(5-((5-((4′-chloro-[1,1′-biphenyl]-2-yl)methyl)-2,5-diazabicyclo[2.2.2]octan-2-yl)methyl)-1-oxoisoindolin-2-yl)piperidine-2,6-dione] — within 1.5-fold, 0.59 µM
- O=C1CCC(N2Cc3cc(N4C5CCC4CN(C(=O)c4ccccc4-c4ccc(Cl)cc4)C5)ccc3C2=O)C(=O)N1 (centres unmarked) [GT-05875, 3-(5-(3-(4′-chloro-[1,1′-biphenyl]-2-carbonyl)-3,8-diazabicyclo[3.2.1]octan-8-yl)-1-oxoisoindolin-2-yl)piperidine-2,6-dione] — within 1.5-fold, 0.51 µM
- O=C1CCC(N2C(=O)c3ccc(CN4CCN(C(=O)C5=C(c6ccc(F)cc6)CCCC5)CC4)cc3C2=O)C(=O)N1 (centres unmarked) [GT-05468, 2-(2,6-dioxopiperidin-3-yl)-5-((4-(4′-fluoro-3,4,5,6-tetrahydro-[1,1′-biphenyl]-2-carbonyl)piperazin-1-yl)methyl)isoindoline-1,3-dione] — 2.3-fold higher, 1.5 µM
- O=C1CCC(N2Cc3cc(CN4C5CC4CN(C(=O)c4ccccc4-c4ccc(Cl)cc4)C5)c(F)cc3C2=O)C(=O)N1 (centres unmarked) [GT-05667, 3-(5-((3-(4′-chloro-[1,1′-biphenyl]-2-carbonyl)-3,6-diazabicyclo[3.1.1]heptan-6-yl)methyl)-6-fluoro-1-oxoisoindolin-2-yl)piperidine-2,6-dione] — within 1.5-fold, 0.75 µM
- CC1(C)CCC(CN2CC3CC(C2)N3Cc2ccc3c(c2)CN(C2CCC(=O)NC2=O)C3=O)=C(c2ccc(Cl)cc2)C1 (centres unmarked) [GT-03492, 3-(5-((3-((4′-chloro-5,5-dimethyl-3,4,5,6-tetrahydro-[1,1′-biphenyl]-2-yl)methyl)-3,6-diazabicyclo[3.1.1]heptan-6-yl)methyl)-1-oxoisoindolin-2-yl)piperidine-2,6-dione] — within 1.5-fold, 0.52 µM
- CC1(C)CCC(CN2CCCN(C(=O)c3ccc4c(c3)CN(C3CCC(=O)NC3=O)C4=O)CC2)=C(c2ccc(Cl)cc2)C1 (centres unmarked) [GT-05453, 3-(5-(4-((4′-chloro-5,5-dimethyl-3,4,5,6-tetrahydro-[1,1′-biphenyl]-2-yl)methyl)-1,4-diazepane-1-carbonyl)-1-oxoisoindolin-2-yl)piperidine-2,6-dione] — 1.9-fold higher, 1.24 µM
